Experimental data: patent US20060057669A1, “Inactive transcription factor tif-ia and uses thereof” (priority 2002, published 2006)

Experiments:
Pol I transcription [1] = test: Pol I reporter plasmid pMrl930-BH co-transfection in NIH3T3 cells, Northern blot; assay type: cell-based; conditions: 0.25, 0.5 or 1 μg expression vector
Procedure: (C) Phosphorylation by RSK is necessary and sufficient for enhancing TIF-IA activity in vivo. NIH3T3 cells were co-transfected with 3 μg pMrl930-BH and lor 2.5 μg of pMT2-HA-CA-RSK2 (lanes 2, 3). Transcripts from the reporter plasmid were monitored on Northern blots. An ethidium bromide stain of cellular 18S and 28S rRNA is shown below.
(C) Transcriptional activity of TIF-IAS44A in vivo. NIH3T3 cells were cotransfected with 2.5 μg Pol I reporter plasmid (pMrl930-BH) and 0.25, 0.5 or 1 μg of pcDNA3.1-TIF-IA (lanes 2-4), TIF-IAS44A (lanes 5-7). Transcripts from the reporter plasmid were monitored on Northern blots. The amount of cellular 18S and 28S rRNA is shown below.
NIH3T3, HEK293T and CLL39 cells were cultured in Dulbecco's modified Eagles medium (DMEM) supplemented with 10% fetal calf serum. Cells were transfected with 5 μg of DNA per 10^6 cells using the calcium phosphate DNA coprecipitation method. Total RNA was isolated after 48 h and analyzed on Northern blots as described (Voit et al., EMBO J. 18 (1999), 1891-1899). Cellular pre-rRNA levels were monitored by hybridization to antisense RNA complementary to the first 155 nucleotides of unprocessed 45S pre-RNA. Transcripts from the rDNA reporter plasmid were monitored by hybridization to a riboprobe that is complementary to pUC sequences inserted between the rDNA promoter and terminator sequences of pMrl930-BH. […]

Pol I = test: Co-immunoprecipitation of Pol I with TIF-IA mutants from HEK293T cells; assay type: binding, human
Procedure: (§1) (B) A mutant that mimics phosphorylation of TIF-IA at S199 fails to interact with Pol I and TIF-IB. FLAG-tagged wild-type TIF-IA or the indicated point mutants were overexpressed in HEK293T cells and immunoprecipitated from cell lysates with anti-FLAG antibodies (M2 agarose). Co-precipitated Pol I and TIF-IB/SL1 were visualized on Western blots with anti-RPA116 and anti-TAFI110 antibodies.
(§2) Immunoprecipitations were carried out from human cells overexpressing FLAG-tagged TIF-IA. Cells were lysed in IP buffer, cleared by centrifugation at 10,000×g for 30 min, and the supernatants were incubated for 4 hr at 4° C. with anti-FLAG (M2) agarose (Sigma). To analyze the interaction of TIF-IA with TIF-IB/SL1, the immunoprecipitates were washed with IP buffer and TIF-IB/SL1 was visualized on immunoblots with α-TAFI110 antibodies. To monitor the interaction of TIF-IA with Pol I, the immunoprecipitates were washed with IP buffer containing 600 mM NaCl and Pol I was analyzed on Western blots using antibodies against the second largest subunit of Pol I (RPA116) or PAF67 (Seither et al., J. Biol. Chem. 382 (2001), 1163-1170).
(§3) Given the importance of mTOR-mediated alterations in the phosphorylation pattern on TIF-IA activity, one could predict that either phosphorylation of S199, dephosphorylation of S44 or both regulate the interaction of TIF-IA with the Pol I transcription apparatus. It was therefore examined whether the S→A or S→D point mutant(s) were capable of interacting with Pol I and/or TIF-IB/SL1. For this, TIF-IA was precipitated from cells overexpressing either FLAG-tagged wild-type TIF-IA or the respective S199 and S44 mutant(s), and co-precipitated Pol I and TIF-IB/SL1 were visualized on Western blots.

TIF-IB/SL1 = test: Co-immunoprecipitation of TIF-IB/SL1 with TIF-IA mutants from HEK293T cells; assay type: binding, human
Procedure: as §1, §2, §3

Pol I transcription [2] = test: In vitro transcription: TIF-IA mutants restoring rDNA transcription of nuclear extract from density-arrested FM3A cells; assay type: biochemical, murine
Procedure: (A) Transcriptional activity of TIF-IA mutants in vitro. FLAG-tagged wild-type TIF-IA and the indicated single or double point mutants were overexpressed in HEK293T cells, immunopurified, and 20 and 40 ng were assayed for their capability to restore rDNA transcriptional activity of nuclear extract from density-arrested FM3A cells. The amount and purity of TIF-IA were estimated on silver-stained SDS-polyacrylamide gels and Western blots (data not shown).
(A) Transcriptional activity of TIF-IAS199A and TIF-IAS199D in vitro. FLAG-tagged wild-type TIF-IA and the indicated mutants were immunopurified from HEK293T cells, and 30 and 60 ng were assayed for their capability to restore transcriptional activity of nuclear extract from density-arrested FM3A cells. The amount and purity of TIF-IA were estimated on silver-stained SDS-polyacrylamide gels (data not shown).
(B) Transcriptional activity of TIF-IAS44A in vitro. FLAG-tagged wild-type TIF-IA and the indicated mutant were assayed for their transcriptional activity in vitro.
(§4) Nuclear extracts were prepared from exponentially growing (8×10^5 cells/ml), density-arrested or PD98059-treated (CN Bioscience, Bad Soden, Germany) 40 μM, 0.5 hr) or rapamycin-treated FM3A cells (ATCC, Manassas, USA). 25 μl assays contained 50 ng of template DNA (pMr600/EcoRI), 30 μg nuclear extract proteins and 12 mM Hepes-KOH, [pH8.0], 0.1 mM EDTA, 5 mM MgCl2, 80 mM KCl, 10 mM creatine phosphate, 12% (v/v) glycerol, 0.66 mM each of ATP, GTP and CTP, 0.01 mM UTP and 0.5 μCi [α-^32P]UTP (5000 Ci/mmol). After incubation for 60 min at 30° C., RNA was extracted and analyzed on non-denaturing 5% polyacrylamide gels
TIF-IA was immunopurified from untransfected NIH3T3 cells or from HEK293T cells overexpressing FLAG-tagged TIF-IA. 4×10^6 cells were lysed in 0.8 ml IP buffer (20 mM Tris-HCl [pH 7.4], 200 mM NaCl, 2 mM EDTA, 2 mM EGTA, 1% Triton X-100, 0.5 mM PMSF, 1 μg/ml aprotinin, 5 μg/ml leupeptin and 1 μg/ml pepstatin A), centrifuged at 10,000 g for 30 min, and the supernatants were incubated for 4 hr at 4° C. with either 10 μg anti-TIF-IA antibodies bound to 20 μl protein G-agarose or with anti-FLAG (M2) agarose (Sigma-Aldrich Corp., Missouri, USA). The immunocomplexes were successively washed with buffer AM (20 mM Tris-HCl [pH 8.0], 5 mM MgCl2, 0.1 mM EDTA, 20% glycerol) containing 400 and 100 mM KCl, respectively. The amount and purity of TIF-IA was estimated on silver-stained polyacrylamide gels and similar amounts of bead-bound TIF-IA were used in in vitro transcription assays. GST fusion proteins were expressed in E. coli BL21(DE3) and purified on Glutathione-Sepharose 4B according to the manufacturer's instructions.
To assess the functional relevance of S633 and S649 phosphorylation on transcriptional activity, the respective S→A and S→D single or double point mutants were purified from transfected cells and assayed for their capability to rescue transcription of extracts from density-arrested cells. […] Thus, phosphorylation of TIF-IA at S649 and S633 is required for transcriptional activity.
Phosphorylation of peptide a should inhibit TIF-IA activity, while phosphorylation of peptide b, e.g. S44, should augment TIF-IA activity.

HEK293T cells [3] = test: Trypan blue staining; assay type: cell-based; conditions: data not shown
HEK293T cells [4] = test: Cell enumeration by dual-parameter flow cytometry; assay type: cell-based; conditions: 60 hr after transfection
Procedure: (C) Cell enumeration by flow cytometry. HEK293T cells expressing wild-type TIF-IA or the S649 mutants were harvested 60 hours after transfection, stained with FITC-conjugated anti-FLAG M2 antibodies and analyzed by dual-parameter flow cytometry in a FACScan™ flow cytometer in the presence of CaliBRITE™ calibration beads. 60,000 events were recorded from each sample. The number of cells expressing FLAG-TIF-IA was calculated from the ratio between FITC-positive cells and counted beads.
HEK293T cells were harvested 60 hr after transfection with pcDNA-FLAG-TIF-IA, fixed with 2% paraformaldehyde and permeabilized with 0.1% Triton X-100 in PBS. […] Cell were analyzed with a FACSCan™ flow cytometer in the presence of CaliBRITE™ beads (Becton Dickinson, San Jose, USA). The number of cells expressing FLAG-TIF-IA was calculated from the ratio between FITC-positive cells and counted beads.
Given the functional significance of ERK/RSK-directed TIF-IA phosphorylation on Pol I transcription, mutations that enhance or abrogate TIF-IA activity may have a positive or negative effect on cell growth. […] The expression of TIF-IA was estimated on Western blots and the cellular growth rate was measured by calcein-AM staining. […] Thus, cellular calcein fluorescence correlates with the amount of viable cells. […]

Pol I transcription [5] = test: In vitro transcription: TIF-IA mutants added to nuclear extract from exponentially growing FM3A cells; assay type: biochemical, murine; conditions: 20 and 40 ng added to 15 ug nuclear extract
Procedure: 20 and 40 ng of the indicated TIF-IA mutants were added to 15 ug nuclear extract from exponentially growing FM3A cells and rDNA transcription was assayed.
as §4
Given that phosphorylation of TIF-IA at serine 649 is essential for transcription, excess of TIF-IAS649A should impair Pol I transcription. To test this, we examined the effect of exogenous wild-type and mutant TIF-IA on transcriptional activity of extracts from exponentially growing cells.

HEK293T cells [6] = test: Quantitative fluorimetric viability assay with calcein-AM; assay type: cell-based; conditions: 24, 36, 48 and 60 hr after transfection; 2 μM calcein-AM
Procedure: (B) Quantitative fluorimetric viability assay with calcein-AM. HEK293T cells were transfected with TIF-IA or the indicated point mutants. […] Viable cells were measured 24, 36, 48 and 60 hr after transfection by incubation with […] calcein-AM. The gradual increase in fluorescence intensity was recorded with a fluorescence multi-well plate reader for 20 min with an excitation wavelength of 485 nm and an emission wavelength of 530 nm. The proliferation rate of mock-transfected cells and cells overexpressing TIF-IA is shown at the left. Plots show the accumulation of calcein fluorescence (arbitrary units) against time. Growth rates calculated from linear regression curves are shown at the right. Values are presented as the mean±SD from three independent experiments performed in duplicates.
Conversion of calcein-AM (calcein acetoxymethyl ester, (CN Bioscience GmbH, Bad Soden, Germany) to calcein was used to measure cell proliferation. 12 hr after transfection, HEK293T cells were seeded to 96-well micro-plates at 1×10^4 cells/well. After 24, 36, 48 and 60 hr, cells were washed with PBS, incubated with 2 μM calcein-AM, and the gradual increase in fluorescence intensity within the cells was recorded by a fluorescence multi-well plate reader (CytoFluor Series 4000/TC, PerSeptive Biosystems, (Applied Biosystems, Forster City, USA) for 20 min in 1 min intervals. Excitation wavelength used for measurements of fluorescence was 485 nm with a bandwidth of 20 nm; emission wavelength was 530 nm with a bandwidth of 25 nm. Under the experimental conditions used, there is a direct correlation between the accumulation ratio of intracellular calcein fluorescence and the number of viable cells. The data from three independent experiments were analyzed by Sigmaplot and expressed as the mean±standard deviation. For statistical analysis, student's t test was used. Differences with a P<0.01 were considered statistically significant.
Given the functional significance of ERK/RSK-directed TIF-IA phosphorylation on Pol I transcription, mutations that enhance or abrogate TIF-IA activity may have a positive or negative effect on cell growth. To test this, HEK293T cells were transfected with cDNAs encoding wild-type or mutant TIF-IA which harbor single or double point mutations at S649 and S633. The expression of TIF-IA was estimated on Western blots and the cellular growth rate was measured by calcein-AM staining. Calcein-AM is a non-fluorescent, hydrophobic compound that is rapidly hydrolyzed by intracellular esterases releasing hydrophilic fluorescent calcein. Thus, cellular calcein fluorescence correlates with the amount of viable cells. […] Cells expressing FLAG-tagged wild-type or mutant TIF-IA were stained with FITC-conjugated anti-FLAG antibodies, identified by FACS and cell numbers were calculated by measuring the ratio of stained cells versus an internal standard. […] Conversely, the number of cells expressing TIF-IAS649A was 33% lower than the control. […] Taken together, the results reveal a striking correlation between phosphorylation of TIF-IA at serine 649, cellular rRNA synthetic activity and cell cycle progression.

HEK293T cells [7] = test: Relative DNA content of sorted cells by FACS analysis; assay type: cell-based
Procedure: HEK293T cells were harvested 60 hr after transfection with pcDNA-FLAG-TIF-IA, fixed with 2% paraformaldehyde and permeabilized with 0.1% Triton X-100 in PBS. Transfected cells were labeled by incubation for 1 hr with 2 μg/ml FITC-conjugated anti-M2 antibodies (Sigma) and subsequently stained with […] propidium iodide (Sigma). Cell were analyzed with a FACSCan™ flow cytometer in the presence of CaliBRITE™ beads (Becton Dickinson, San Jose, USA). The number of cells expressing FLAG-TIF-IA was calculated from the ratio between FITC-positive cells and counted beads.
Given the functional significance of ERK/RSK-directed TIF-IA phosphorylation on Pol I transcription, mutations that enhance or abrogate TIF-IA activity may have a positive or negative effect on cell growth. To test this, HEK293T cells were transfected with cDNAs encoding wild-type or mutant TIF-IA which harbor single or double point mutations at S649 and S633. The expression of TIF-IA was estimated on Western blots and the cellular growth rate was measured by calcein-AM staining. […] Thus, cellular calcein fluorescence correlates with the amount of viable cells. […] Cells expressing FLAG-tagged wild-type or mutant TIF-IA were stained with FITC-conjugated anti-FLAG antibodies, identified by FACS and cell numbers were calculated by measuring the ratio of stained cells versus an internal standard. […]

TIF-IAS44A: TIF-IA mutant, S44 mutated to alanine
transcription of the Pol I reporter (Pol I transcription [1]): inactive
interaction with Pol I (co-precipitated RPA116) (Pol I): interacted with both Pol I and TIF-IB/SL1
interaction with TIF-IB/SL1 (co-precipitated TAFI110) (TIF-IB/SL1): interacted with both Pol I and TIF-IB/SL1
capability to rescue transcription of extracts from density-arrested cells (Pol I transcription [2]; S199 and S44 mutants, 30 and 60 ng): abolishment of transcriptional activity of TIF-IA

TIF-IAS633AS649D: printed once in b155, probably a misprint of TIF-IAS633AS649A
cell viability as cause of growth inhibition (HEK293T cells [3]): not due to decreased cell viability

TIF-IAS649D: TIF-IA point mutant, serine 649 replaced by aspartic acid
number of cells higher compared to cells overexpressing wild-type TIF-IA (HEK293T cells [4]): 43%
effect on transcriptional activity of extracts from exponentially growing cells (Pol I transcription [5]): enhanced Pol I transcription
cellular growth rate by calcein-AM staining (HEK293T cells [6]): accelerated cell growth
increase of G2/M-phase cells (HEK293T cells [7]): 50%
capability to rescue transcription of extracts from density-arrested cells (Pol I transcription [2]; S633/S649 mutants, 20 and 40 ng): activated Pol I transcription to a similar or even higher level compared to wild-type TIF-IA
